# Results as given in the supplement of paper PMC10307832.
# Experiments:
# Assay in all cases: relative viability (nuclei count vs DMSO), 5 days (fraction); higher = more cells survive
# Ruxolitinib + Olaparib = compound: N#CC[C@H](C1CCCC1)n1cc(-c2ncnc3[nH]ccc23)cn1 [Ruxolitinib] + O=C(c1cc(Cc2n[nH]c(=O)c3ccccc23)ccc1F)N1CCN(C(=O)C2CC2)CC1 [Olaparib] (partner 8 µM)
# Summary of the method: (§1)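 One day after seeding in 1536-well plates, lung cancer cell lines were dosed by pin tool. Dosing was either single-drug or a fixed anchor-drug dose plus five library-drug doses (not always all listed) in √10 steps. After 5 days, nuclei were stained in one fix-and-stain step and counted on 4× images, and relative viability is the nuclei count of treated wells over that of vehicle wells, given as the median of duplicate plates.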
# VE-821 + AZD7762 = compound: CS(=O)(=O)c1ccc(-c2cnc(N)c(C(=O)Nc3ccccc3)n2)cc1 [VE-821] + NC(=O)Nc1cc(-c2cccc(F)c2)sc1C(=O)N[C@H]1CCCNC1 [AZD7762] (partner 0.2 µM)
# Summary of the method: as §1
# VE-821 + Dasatinib = compound: CS(=O)(=O)c1ccc(-c2cnc(N)c(C(=O)Nc3ccccc3)n2)cc1 [VE-821] + Cc1nc(Nc2ncc(C(=O)Nc3c(C)cccc3Cl)s2)cc(N2CCN(CCO)CC2)n1 [Dasatinib] (partner 0.075 µM)
# Summary of the method: as §1
# Vismodegib + AZD7762 = compound: CS(=O)(=O)c1ccc(C(=O)Nc2ccc(Cl)c(-c3ccccn3)c2)c(Cl)c1 [Vismodegib] + NC(=O)Nc1cc(-c2cccc(F)c2)sc1C(=O)N[C@H]1CCCNC1 [AZD7762] (partner 0.2 µM)
# Summary of the method: as §1
Cell Line,relative viability (Ruxolitinib + Olaparib; first compound 0.08 µM),relative viability (Ruxolitinib + Olaparib; first compound 0.253 µM),relative viability (Ruxolitinib + Olaparib; first compound 0.8 µM),relative viability (Ruxolitinib + Olaparib; first compound 2.53 µM),relative viability (Ruxolitinib + Olaparib; first compound 8 µM),relative viability (VE-821 + AZD7762; first compound 0.08 µM),relative viability (VE-821 + AZD7762; first compound 0.253 µM),relative viability (VE-821 + AZD7762; first compound 0.8 µM),relative viability (VE-821 + AZD7762; first compound 2.53 µM),relative viability (VE-821 + AZD7762; first compound 8 µM),relative viability (VE-821 + Dasatinib; first compound 0.08 µM),relative viability (VE-821 + Dasatinib; first compound 0.253 µM),relative viability (VE-821 + Dasatinib; first compound 0.8 µM),relative viability (VE-821 + Dasatinib; first compound 2.53 µM),relative viability (VE-821 + Dasatinib; first compound 8 µM),relative viability (Vismodegib + AZD7762; first compound 0.08 µM),relative viability (Vismodegib + AZD7762; first compound 0.253 µM),relative viability (Vismodegib + AZD7762; first compound 0.8 µM),relative viability (Vismodegib + AZD7762; first compound 2.53 µM),relative viability (Vismodegib + AZD7762; first compound 8 µM)
NCI-H727,0.715,0.8,0.603,0.826,0.645,0.512,0.495,0.411,0.382,0.41,0.457,0.334,0.374,0.32,0.317,0.594,0.691,0.677,0.448,0.661
NCI-H2023,0.483,0.604,0.509,0.515,0.339,–,–,–,–,–,0.681,0.432,0.458,0.373,0.13,–,–,–,–,–
NCI-H1563,–,–,–,–,–,–,–,–,–,–,0.449,0.483,0.405,0.456,0.453,–,–,–,–,–
LCLC-103H,0.774,0.753,0.786,0.837,0.758,0.829,0.758,0.705,0.758,0.632,0.418,0.525,0.31,0.474,0.513,0.752,0.796,0.735,0.774,0.834
HARA,1.17,0.841,1.04,0.793,0.584,0.256,0.315,0.145,0.158,0.249,0.271,0.221,0.315,0.254,0.253,0.462,–,0.309,0.244,0.417
RERF-LC-KJ,0.966,0.881,0.948,0.844,0.626,0.994,0.975,0.974,1.03,0.688,0.924,0.651,0.582,0.69,0.582,1.09,0.881,0.959,0.974,0.967
NCI-H2009,0.701,0.712,0.684,0.575,0.482,–,–,–,–,–,0.332,0.263,0.212,0.26,0.16,–,–,–,–,–
NCI-H2126,0.923,0.933,0.958,0.879,0.811,1.07,1.05,0.987,0.928,0.615,0.57,0.52,0.515,0.427,0.36,1.08,0.912,0.978,0.933,1.03
NCI-H460,–,0.463,0.411,0.344,0.375,0.568,0.411,0.217,0.117,0.0688,0.58,0.488,0.428,0.261,0.223,0.583,0.56,0.576,0.535,0.724
SW 900,0.805,0.944,0.955,1.05,0.91,0.673,0.506,0.391,0.437,0.351,0.7,0.545,0.397,0.658,0.37,0.474,0.539,0.689,–,0.61
